{"source": "patent US20200055848A1", "about": "“FURANONE DERIVATES AND METHODS OF USE THEREOF” (CARNA BIOSCIENCES, INC., priority 2016, published 2020)", "key": {"Cdc7": {"biological_target": "Cdc7 (Homo sapiens, UniProt O00311)", "assay": "Rapid dilution assay (dissociation rate from Cdc7)", "format": "biochemical", "description": "FIG. 2 is a graph of the results obtained from the rapid dilution assay for Cdc7 inhibitors. Recovery of enzymatic activity was monitored by formation of the phosphorylated product. DMSO control (closed circle), compound 1 (open triangle), compound 13 (open square).\nTo better understand the observed time dependent inhibition of these compounds, compound 13 was subjected to the rapid dilution assay to study dissociation rate, and compared with compound 1. The inhibitor-enzyme mixture was rapidly diluted into the assay buffer containing the substrate and a high concentration of ATP, and then the phosphorylated product formation was monitored over 500 min of time course."}, "GSK3α": {"biological_target": "GSK3α (Homo sapiens, UniProt P49840)", "assay": "Kinase selectivity IC50, GSK3α", "format": "biochemical", "method": "(§1) To investigate the representative kinase selectivity of these compounds at physiological ATP levels, compound 13 was screened over a panel of 121 kinases in the presence of 1 mM ATP with preincubation method. […] IC50 values of hit kinases were determined to confirm the selectivity of compound 13."}, "[1]": {"assay": "In vitro metabolic stability, mouse liver microsomes", "format": "in vitro ADME", "method": "NADPH regeneration system (13 mM NADP, 33 mM Glucose-6-phospate, 33 mM MgCl2, and 4 U/mL of Glucose-6-phosphate dehydrogenase) and liver microsomes (1 mg/mL of HLM (BD Gentest, lot 18888) or MLM (BD Gentest, lot 31197)) in 0.1 M phosphate buffer (pH 7.4) were pre-incubated separately at 37° C. for 20 min before mixing with 1:4 ratio. 50 μL of the mixed solution was added to 50 μL of the test compound (2 μM) to initiate the reaction at 37° C. (final conc. 1 μM test compound, 0.4 mg/mL liver microsomes, and 1.3 mM NADPH). After 30 min, the reactions were stopped by adding 300 μL of cold acetonitrile. For 0 min samples, ice-cold acetonitrile (with system suitability standard) was treated before mixing the test compound and microsomes. The sample were vortexed well and then centrifuged at 3500 rpm at 15° C. for 20 min. 110 μL of supernatant was mixed with 110 μL of water and quantitated by LC-MS/MS workstation (Shimazu Corp.)."}, "cleaved PARP": {"tested_on": "cleaved PARP", "assay": "Western blotting of cleaved PARP in Colo-205 cells", "format": "cell-based, human", "details": "48 h", "method": "FIGS. 3A and 3B illustrate the effects of Cdc7 inhibition by compound 13 in Colo-205 cells. a) Western blot analysis of extracts prepared from Colo-205 cells at 48 h after treatment with DMSO control (0 μM) or compound 13 at indicated concentrations. b) […] analysis of Colo-205 cells treated for 48 h with DMSO control (0 μM) and the indicated concentration of compound 13. DNA content was measured by FACS after propidium iodide staining.\nHuman colon adenocarcinoma cell line Colo-205 was obtained from American Type Culture Collection (ATCC, Manassas Va.). Cells were grown in RPMI1640 supplemented with 10% FBS and 1% penicillin/streptomycin at 37° C., 5% CO2 and 95% humidity. Antibodies against Phospho-Histone H2A.X (Ser139) (no. 2577), Cleaved PARP (Asp214) (no. 9541) and MCM2 (no. 3619) were obtained from Cell signaling Technology. […]\nCells were seeded in T75 flasks (cell density, 2.25×10^6 cells/13.5 mL) and then incubated at 37° C. overnight. […] After washing with cold D-PBS, cells were scraped and lysed using a lysis buffer [RIPA Buffer (×1) containing 1% Phosphatase inhibitor Cocktail 3, 1% Phosphatase inhibitor Cocktail, and 1 mM phenylmethylsulfonyl fluoride], and the obtained samples were analyzed by western blotting. […] Each band was detected by chemiluminescence using a CCD camera (ImageQuant LAS 500, GE healthcare Ltd.)."}, "PIM1": {"biological_target": "PIM1 (Homo sapiens, UniProt P11309)", "assay": "Kinase selectivity IC50, PIM1", "format": "biochemical", "method": "as §1"}, "[2]": {"biological_target": "T1, human Cdc7/human ASK complex protein (Homo sapiens, UniProt O00311)", "T1 construct": "purchased Carna Biosciences, Inc", "assay": "Cdc7/ASK enzymatic assay", "format": "biochemical", "details": "for pIC50: read-out: Cdc7 IC50", "method": "Measurement of Cdc7 kinase activity was carried out using MSA assay kit (QuickScout™ Screening Assist Kit, Carna Biosciences, Inc.). Assay buffer (20 mM HEPES, 0.01% Triton X-100™, 2 mM dithiothreitol, pH 7.5) was used to prepare a substrate mixture solution comprising 4 μM of kinase-reaction substrate (FITC-labeled MCM2 peptide), 40 mM MgCl2, and 4 times concentrations of final targeted ATP (5, 100, and 1,000 μM). The enzyme supplied in the kit (human Cdc7/human ASK complex protein) was diluted into the assay buffer to prepare a 7 nM solution (enzyme solution). The compound stock solution was prepared by diluting a 10 mM DMSO solution into the assay buffer (final 4% DMSO). The kinase reaction was performed by mixing of 5 μL of the compound solution, 5 μL of the substrate mixture solution, and 10 μL of the enzyme solution in a 384-well plate. For the pre-incubation assay, the compound solution and the enzyme solution were pre-mixed and incubated at ambient temperature for 30 min before adding into the substrate mixture solution to start enzymatic reaction. After the reaction at 25° C. for 5 hours, 60 μL of the termination buffer (supplied in the kit) was added to stop the reaction. The phosphorylation of substrate was measured using a LabChip EZ Reader II system (Caliper Life Sciences). The percent inhibition (%) by a tested compound was calculated according to the following formula:\nPercent inhibition (%)=(1−(C−A)/(B−A))×100\nA represents P/(P+S) for a blank well, B represents P/(P+S) for a solvent well, and C represents P/(P+S) for a compound-added well. S: the peak heights of the separated substrate, P: phosphorylated substrate.\nThe IC50 value of tested compound was calculated by regression analysis of the percent inhibition values versus the (logarithmic) concentration of the tested compound."}, "[3]": {"details": "1 mM ATP with preincubation, mean of duplicated assays"}}, "note": "pIC50: −log10 of the molar value. Like-named read-outs stand apart in the source and are kept apart here.", "data": [{"smiles": "CCOC(=O)C1=C(Nc2ccccc2Cl)OC(=Cc2c[nH]c3ncccc23)C1=O", "note": "[Compound 13, Ethyl 5-((1H-pyrrolo[2,3-b]pyridin-3-yl)methylene)-2-((2-chlorophenyl)amino)-4-oxo-4,5-dihydrofuran-3-carboxylate]", "values": [{"measurement": "phosphorylated product formation after rapid dilution", "setting": "Cdc7; monitored over 500 min", "value": "much reduced rate"}, {"measurement": "koff", "setting": "Cdc7; rapid dilution, high concentration of ATP, read-out: off-rate from Cdc7 (koff) (converted)", "value": "5.83e-05", "unit": "s⁻¹"}, {"measurement": "residence time", "setting": "Cdc7; rapid dilution, high concentration of ATP, read-out: t1/2 of dissociation from Cdc7", "value": 197, "unit": "min"}, {"measurement": "IC50", "setting": "GSK3α; [3]", "value": 37, "unit": "nM"}, {"measurement": "Fold selectivity, GSK3α", "setting": "GSK3α; IC50 versus Cdc7", "value": 61, "unit": "fold"}, {"measurement": "MLM % (remaining % of parent compound)", "setting": "[1]; 30 min treatment of mouse liver microsomes", "value": 58, "unit": "%"}, {"measurement": "metabolic stability in mice (in words)", "setting": "[1]; mouse", "value": "improved metabolic stabilities"}, {"measurement": "cleaved PARP (apoptosis marker)", "setting": "cleaved PARP", "value": "Dose-dependent increases"}, {"measurement": "IC50", "setting": "PIM1; [3]", "value": 77, "unit": "nM"}, {"measurement": "Fold selectivity, PIM1", "setting": "PIM1; IC50 versus Cdc7", "value": 129, "unit": "fold"}, {"measurement": "pIC50", "setting": "[2]; 5 μM ATP, mean of duplicated assays", "value": 8.62}, {"measurement": "pre-incubation effect on Cdc7 inhibition", "setting": "[2]; 30 min pre-incubation with Cdc7, various ATP concentrations up to 1 mM", "value": "inhibitory potencies were sustained even in the presence of 1 mM ATP"}, {"measurement": "Fold selectivity, Cdc7", "setting": "[2]; IC50 for each kinase versus Cdc7", "value": 1.0, "unit": "fold"}, {"measurement": "pIC50", "setting": "[2]; in the presence of 1 mM ATP, without pre-incubation", "value": 6.72}, {"measurement": "IC50", "setting": "[2]; kinase selectivity table, 1 mM ATP with preincubation, mean of duplicated assays, read-out: IC50 (nM), Cdc7", "value": 0.6, "unit": "nM"}, {"measurement": "ATP competition assay: effect of ATP concentration on inhibitory potency", "setting": "[2]; various ATP concentrations, without pre-incubation", "value": "ATP-dependent proportional decreases in inhibitory potencies"}]}]}
